Measured values published in PMC3466118 (Journal of medicinal chemistry, 2011).

Key:
[1] = system: HepG2, Hela and SH-SY5Y carcinoma cell lines; assay: Antiproliferative activity across the three carcinoma cell lines; format: cell-based; conditions: Homo sapiens, read-out: EC50–48 h, span over the three cell lines
[2] = system: retinoic acid-differentiated SH-SY5Y neuroblastoma cells; assay: Cytotoxicity in unstressed differentiated SH-SY5Y cells; format: cell-based, human; conditions: 0.5–50 μM, 24 h, XTT
[3] = system: acetylation of histone H4 in retinoic acid-differentiated SH-SY5Y cells; assay: Acetylation of H4 in differentiated SH-SY5Y cells; format: cell-based, human; conditions: 1 μM, also in cells stressed with compound 30
[4] = target: recombinant human HDAC3/NCoR2 (Homo sapiens, UniProt O15379); assay: HDAC3 inhibition, fluorescent substrate Boc-L-Lys
[5] = system: retinoic acid differentiated SH-SY5Y human neuroblastoma cells treated with 30; assay: Neuroprotection assay, cells stressed with compound 30; format: cell-based; conditions: for Neuroprotective effect: differentiated SH-SY5Y cells stressed with 100 μM of 30, 24 h, XTT
[6] = target: T1, recombinant human HDAC8 (Homo sapiens, UniProt Q9BY41); assay: HDAC8 inhibition, fluorescent substrate Fluor de Lys
T1 sequence (Q9BY41 1-377): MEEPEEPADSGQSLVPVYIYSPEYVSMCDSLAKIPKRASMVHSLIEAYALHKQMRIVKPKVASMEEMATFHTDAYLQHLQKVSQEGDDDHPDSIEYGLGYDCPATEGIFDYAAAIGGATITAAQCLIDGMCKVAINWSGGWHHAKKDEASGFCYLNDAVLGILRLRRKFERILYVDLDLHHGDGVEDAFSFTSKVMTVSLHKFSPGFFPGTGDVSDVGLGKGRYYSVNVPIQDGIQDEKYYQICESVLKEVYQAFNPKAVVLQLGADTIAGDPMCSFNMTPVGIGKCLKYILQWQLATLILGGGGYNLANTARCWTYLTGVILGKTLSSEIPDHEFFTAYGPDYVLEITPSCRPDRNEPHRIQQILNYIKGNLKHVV

[7] = target: T1, recombinant human HDAC8; conditions: cited from earlier work
[8] = system: cleavage of caspase 3 in HepG2 cells; assay: Western blot, activation/cleavage of caspase 3 in HepG2 cells; format: cell-based, human
[9] = system: acetylation of p53 in HepG2 cells; assay: Western blot, acetylation of p53 in HepG2 cells; format: cell-based, human; conditions: HepG2 total cell extracts

Chain of recombinant human HDAC3/NCoR2 (O15379 whole entry): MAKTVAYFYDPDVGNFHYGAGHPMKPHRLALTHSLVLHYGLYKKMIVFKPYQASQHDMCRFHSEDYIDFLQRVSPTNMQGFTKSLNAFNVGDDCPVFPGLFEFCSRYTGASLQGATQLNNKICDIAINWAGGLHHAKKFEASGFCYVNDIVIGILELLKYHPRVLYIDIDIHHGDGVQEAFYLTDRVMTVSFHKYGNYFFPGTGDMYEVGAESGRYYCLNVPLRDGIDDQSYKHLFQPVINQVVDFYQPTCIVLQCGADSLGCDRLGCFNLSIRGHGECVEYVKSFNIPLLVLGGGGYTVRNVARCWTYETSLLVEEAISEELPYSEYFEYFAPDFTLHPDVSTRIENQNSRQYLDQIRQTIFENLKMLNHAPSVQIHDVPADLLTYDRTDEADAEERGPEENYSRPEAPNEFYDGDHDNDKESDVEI
Chain of recombinant human HDAC3/NCoR2 (Q9Y618 395-489 partner limits assumed): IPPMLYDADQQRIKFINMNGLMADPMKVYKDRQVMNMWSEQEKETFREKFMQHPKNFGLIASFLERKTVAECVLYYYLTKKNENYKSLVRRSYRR

Row | EC50 [1] [µM] | Structure (SMILES) | Cytotoxicity to differentiated neuroblastoma cells [2] | Hyperacetylation of histone H4 [3] | Neuroprotective effect [5] | further results
1 | 24 to 36 | [N-]=[N+]=NCc1cc(Cn2cc(NC(=O)CCCCCCC(=O)NO)cn2)cc(N=[N+]=[N-])c1 [3f, Octanedioic acid [1-(3-azido-5-azidomethylbenzyl)-1H-pyrazol-4-yl]amide hydroxyamide] | subtle toxicity at 20 μM | induce hyperacetylation of histone H4 | protect cells from stress induced by compound 30 at low micromolar concentrations | IC50 ratio compound/SAHA, HDAC3 [4]: ND ^e 4.74; Cell survival relative to vehicle ([5]; 0.5 and 1 μM, differentiated SH-SY5Y cells stressed with 100 μM of 30): more than doubles the amount of cell survival; Fold more active towards HDAC8 than HDAC3 (selectivity) ([6]; HDAC8 vs HDAC3): 8 fold
2 | 10 to 23 | [N-]=[N+]=Nc1ccc(Cn2cc(NC(=O)CCCCCCC(=O)NO)cn2)cc1 [3c, Octanedioic acid [1-(4-azidobenzyl)-1H-pyrazol-4-yl]amide hydroxyamide] | not toxic to the cells |  | non-neuroprotective | Fold better potency than 3a, HDAC3 ([4]; compared with 3a): 2.0 fold; Fold better potency than 3a, HDAC8 ([6]; compared with 3a): 2.7 fold
3 | 10 to 23 | O=C(CCCCCCC(=O)Nc1cnn(Cc2ccccc2)c1)NO [3a, Octanedioic acid (1-benzyl-1H-pyrazol-4-yl)amide hydroxyamide] | not toxic to the cells |  | non-neuroprotective | 

The remaining lines, values behind:

Row | Structure (SMILES) | EC50 [1] [µM] | Cytotoxicity to differentiated neuroblastoma cells [2] | Hyperacetylation of histone H4 [3] | Neuroprotective effect [5] | further results
4 | [N-]=[N+]=NCc1cc(COc2ccc(NC(=O)CCCCCCC(=O)NO)cc2)cc(N=[N+]=[N-])c1 [compound 1] |  |  |  |  | Fold decrease in HDAC8 inhibitory activity compared to SAHA [7]: 17 fold
5 | [N-]=[N+]=NCc1cc(N=[N+]=[N-])cc(C(=O)Nc2ccc(-c3cc(C(=O)NCCCCCCC(=O)NO)no3)cc2)c1 [2b, 5-[4-(3-Azido-5-azidomethylbenzoylamino)phenyl]isoxazole-3-carboxylic acid (6-hydroxycarbamoylhexyl)amide] | 11 to 32 |  | induce hyperacetylation of histone H4 | protect cells from stress induced by compound 30 at low micromolar concentrations | Cleavage of caspase 3 [8]: induced cleavage of caspase 3 by 14 h with maximum activation at 24 h; Acetylation of p53 [9]: neither SAHA nor 2b induced additional time and dose-dependent hyperacetylation of p53
6 | [N-]=[N+]=Nc1ccc(-c2cc(C(=O)NCCCCCCC(=O)NO)no2)cc1 [2a, 5-(4-Azidophenyl)isoxazole-3-carboxylic acid(6-hydroxycarbamoylhexyl)amide] |  | not overly cytotoxic | induce hyperacetylation of histone H4 | protect cells from stress induced by compound 30 at low micromolar concentrations | 
